Reference: patent publication US6710052B2, “Pyrimidine compounds” (AstraZeneca, priority 2000, dated 2004)
pIC50: −log10 of the molar value.

Legend:
CDK4/Cyclin D1 = molecular target: T1, CDK4/Cyclin D1 (Homo sapiens, UniProt P11802); assay: CDK4 Inhibition Assay (Scintillation Proximity Assay, GST-Retinoblastoma substrate); format: biochemical; conditions: in vitro kinase assay; read-out: CDK4 inhibitory activity IC50
T1 construct: made in house; host or cells: Sf21 insect cells, baculovirus co-infection (pVL1393); the GST-Rb substrate was made in E. coli BL21 (DE3) pLysS
T1 sequence (P11802 whole entry): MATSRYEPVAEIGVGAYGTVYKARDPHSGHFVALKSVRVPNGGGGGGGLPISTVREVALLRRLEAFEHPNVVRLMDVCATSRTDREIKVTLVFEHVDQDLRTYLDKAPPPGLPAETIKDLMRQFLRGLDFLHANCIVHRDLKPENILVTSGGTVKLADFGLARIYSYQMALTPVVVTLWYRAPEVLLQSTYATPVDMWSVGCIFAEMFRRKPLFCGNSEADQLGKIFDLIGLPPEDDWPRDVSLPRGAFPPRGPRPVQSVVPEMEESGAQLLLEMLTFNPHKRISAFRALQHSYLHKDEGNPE
T1 sequence (P24385 whole entry partner): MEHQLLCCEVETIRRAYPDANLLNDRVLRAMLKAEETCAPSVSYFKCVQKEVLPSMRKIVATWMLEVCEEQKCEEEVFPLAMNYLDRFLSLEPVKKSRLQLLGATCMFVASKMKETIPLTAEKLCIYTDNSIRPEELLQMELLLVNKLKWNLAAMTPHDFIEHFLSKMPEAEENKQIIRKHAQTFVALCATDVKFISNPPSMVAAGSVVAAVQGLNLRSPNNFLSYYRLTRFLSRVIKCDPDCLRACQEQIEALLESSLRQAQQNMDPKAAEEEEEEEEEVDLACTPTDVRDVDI
Description: The compounds were tested in an in vitro kinase assay in 96 well format using Scintillation Proximity Assay (SPA—obtained from Amersham) for measuring incorporation of [γ-33-P]-Adenosine Triphosphate into a test substrate (GST-Retinoblastoma). In each well was placed the compound to be tested (diluted in DMSO and water to correct concentrations) and in control wells either p 16 as an inhibitor control or DMSO as a positive control.
Approximately 0.51 μl of CDK4/Cyclin D1 partially-purified enzyme (amount dependent on enzyme activity) diluted in 25 μl incubation buffer was added to each well then 20 μl of GST-Rb/ATP/ATP33 mixture (containing 0.5 μg GST-Rb and 0.2 μM ATP and 0.14 μCi [γ-33-P]-Adenosine Triphosphate), and the resulting mixture shaken gently, then incubated at room temperature for 60 minutes. […]
The plates were sealed with Topseal-S plate sealers, left for two hours then spun at 2500 rpm, 1124× g., for 5 minutes. The plates were read on a Topcount for 30 seconds per well. […]
E. coli paste was resuspended in 10 ml/g of NETN buffer (50 mM Tris pH 7.5, 120 mM NaCl, 1 mM EDTA, 0.5%v/v NP-40, 1 mM PMSF, 1 ug/ml leupeptin, 1 ug/ml aprotinin and 1 ug/ml pepstatin) and sonicated for 2×45 seconds per 100 ml homogenate. […] The final product was analysed by Sodium Dodeca Sulfate (SDS) PAGE (Polyacrylamide gel) using 8-16% Tris-Glycine gels (Novex, San Diego, USA). […]

[1] = molecular target: T2, human Focal Adhesion Kinase (FAK) (Homo sapiens, UniProt Q05397); assay: FAK3 Kinase Inhibition Assay; format: biochemical; conditions: in vitro enzyme assay; read-out: FAK inhibitory activity IC50
T2 construct: FAK (full length human cDNA described by Andre et al); made in house; host or cells: Sf21 insect cells, recombinant baculovirus (pFastbac 1)
T2 sequence (Q05397 whole entry): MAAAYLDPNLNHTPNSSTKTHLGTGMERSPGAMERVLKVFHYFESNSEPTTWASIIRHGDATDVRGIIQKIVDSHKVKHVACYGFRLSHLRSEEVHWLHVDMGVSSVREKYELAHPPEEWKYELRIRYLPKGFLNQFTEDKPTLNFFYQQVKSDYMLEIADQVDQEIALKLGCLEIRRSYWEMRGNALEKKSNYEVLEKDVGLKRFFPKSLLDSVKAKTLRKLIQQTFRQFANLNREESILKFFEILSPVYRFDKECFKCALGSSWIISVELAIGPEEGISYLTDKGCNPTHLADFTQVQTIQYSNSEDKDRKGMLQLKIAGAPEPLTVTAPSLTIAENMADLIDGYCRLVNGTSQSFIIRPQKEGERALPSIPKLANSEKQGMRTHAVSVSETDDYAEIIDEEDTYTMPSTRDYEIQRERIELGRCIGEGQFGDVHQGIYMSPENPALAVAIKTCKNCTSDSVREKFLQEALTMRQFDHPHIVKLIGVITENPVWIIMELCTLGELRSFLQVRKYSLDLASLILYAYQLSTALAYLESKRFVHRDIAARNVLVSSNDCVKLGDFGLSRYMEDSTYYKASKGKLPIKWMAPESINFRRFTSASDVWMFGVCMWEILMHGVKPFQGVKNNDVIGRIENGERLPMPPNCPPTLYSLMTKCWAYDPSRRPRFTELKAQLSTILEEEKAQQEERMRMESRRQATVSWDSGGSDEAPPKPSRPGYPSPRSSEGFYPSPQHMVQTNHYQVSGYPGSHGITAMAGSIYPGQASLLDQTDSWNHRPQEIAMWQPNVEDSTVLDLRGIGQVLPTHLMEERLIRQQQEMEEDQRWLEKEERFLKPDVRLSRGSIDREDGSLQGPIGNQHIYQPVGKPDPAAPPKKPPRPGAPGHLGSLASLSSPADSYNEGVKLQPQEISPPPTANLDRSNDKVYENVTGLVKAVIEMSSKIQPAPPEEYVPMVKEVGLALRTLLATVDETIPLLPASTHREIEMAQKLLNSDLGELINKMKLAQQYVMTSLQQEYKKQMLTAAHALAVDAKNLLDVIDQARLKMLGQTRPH
Source text: FAK3 Kinase Inhibition Assay
This assay determines the ability of a test compound to inhibit tyrosine kinase activity of human Focal Adhesion Kinase (FAK).
DNA encoding FAK is obtained by total gene synthesis (Edwards M, International Biotechnology Lab 5(3), 19-25, 1987) or by cloning. These are then expressed in a suitable expression system to obtain polypeptide with tyrosine kinase activity.
Active FAK protein has been previously expressed in a baculovirus system using a similar N-terminal 6-histidine tag (Protein Expression And Purification, 1996, 7: 12-18). The human FAK cDNA was cloned into the baculovirus transplacement vector, pFastbac 1 (Life Technologies), and the recombinant construct was co-transfected into insect cells (for example Spodoptera frugiperda 21(Sf21)) with viral DNA to prepare recombinant baculovirus (details of the methods for the assembly of recombinant DNA molecules and the preparation and use of recombinant baculovirus can be found in standard texts for example Sambrook et al, 1989, Molecular cloning—A Laboratory Manual, 2nd edition, Cold Spring Harbour Laboratory Press and O'Reilly et al, 1992, Baculovirus Expression Vectors—A Laboratory Manual, W. H. Freeman and Co, New York. Details specific to the use of the pFastbac (‘Bac to Bac’) system are provided in Anderson et al., 1995, FOCUS (Life Technologies Bulletin Magazine), 17, p53.) […]

pIC50 (CDK4/Cyclin D1) | pIC50 [1] | Structure (SMILES)
6.05 | – | COc1ccc(Oc2nc(Nc3ccc(OCC(O)CNC(C)C)cc3)ncc2F)cc1 (centres unmarked) [Example 13]
– | 6.44 | CN(C)CC(O)COc1ccc(Nc2ncc(Br)c(Sc3ccccc3)n2)cc1 (centres unmarked) [Example 14, 5-Bromo-2-{4-[2-hydroxy-3-(N,N-dimethylamino)propoxy]anilino}-4-(phenylthio)pyrimidine]
